Measurements as given in the OligoGym collection.
HELM strings list units from the 5' end as sugar, base in round brackets, then linkage (d deoxyribose, r ribose, m 2'-O-methyl, p phosphodiester). Strings are as the collection lists them; they lack the last nucleoside at the 3' end of the tested compound. [moe] = 2'-O-(2-methoxyethyl) (MOE); [sp] = phosphorothioate linkage; [m5C] = 5-methylcytosine

Target: APP
Experiment: mouse, dose not given
Conditions: ASO

Substance | 3 h FOB score [score 0-7]
RNA1{[moe](G)[sp].[moe]([m5C])p.[moe](A)p.[moe]([m5C])p.[moe]([m5C])[sp].d(A)[sp].d(T)[sp].d([m5C])[sp].d(T)[sp].d(A)[sp].d(T)[sp].d(A)[sp].d(A)[sp].d(T)[sp].d(A)[sp].[moe]([m5C])p.[moe]([m5C])p.[moe](A)[sp].[moe](T)}$$$$ (last 3' nucleoside missing) | 0
RNA1{[moe](G)[sp].[moe](T)p.[moe](T)p.[moe](T)p.[moe](A)[sp].d([m5C])[sp].d([m5C])[sp].d(T)[sp].d(T)[sp].d(T)[sp].d(A)[sp].d(A)[sp].d([m5C])[sp].d(A)[sp].d(T)[sp].[moe](T)p.[moe]([m5C])p.[moe]([m5C])[sp].[moe](T)}$$$$ (last 3' nucleoside missing) | 0
RNA1{[moe](T)[sp].[moe](T)p.[moe](T)p.[moe](G)p.[moe]([m5C])[sp].d(T)[sp].d(A)[sp].d([m5C])[sp].d(T)[sp].d(T)[sp].d(G)[sp].d(A)[sp].d(T)[sp].d(A)[sp].d(A)[sp].[moe](T)p.[moe]([m5C])p.[moe]([m5C])[sp].[moe](T)}$$$$ (last 3' nucleoside missing) | 1
RNA1{[moe]([m5C])[sp].[moe](A)p.[moe](T)p.[moe](G)p.[moe](A)[sp].d(G)[sp].d(T)[sp].d([m5C])[sp].d([m5C])[sp].d(A)[sp].d(A)[sp].d(T)[sp].d(G)[sp].d(A)[sp].d(T)[sp].[moe](T)p.[moe](G)p.[moe]([m5C])[sp].[moe](A)}$$$$ (last 3' nucleoside missing) | 5.5
RNA1{[moe](G)[sp].[moe](T)p.[moe](G)p.[moe]([m5C])p.[moe](T)[sp].d(T)[sp].d(A)[sp].d(T)[sp].d(A)[sp].d(A)[sp].d([m5C])[sp].d(T)[sp].d([m5C])[sp].d(T)[sp].d([m5C])[sp].[moe](A)p.[moe](T)p.[moe](A)[sp].[moe]([m5C])}$$$$ (last 3' nucleoside missing) | 1
RNA1{[moe](G)[sp].[moe](A)[sp].[moe](T)p.[moe]([m5C])p.[moe](T)[sp].d(G)[sp].d(A)[sp].d(A)[sp].d(T)[sp].d([m5C])[sp].d([m5C])[sp].d([m5C])[sp].d(A)[sp].d([m5C])[sp].d(T)[sp].[moe](T)p.[moe]([m5C])p.[moe]([m5C])[sp].[moe]([m5C])}$$$$ (last 3' nucleoside missing) | 0.25
RNA1{[moe](T)[sp].[moe](T)p.[moe](G)p.[moe](A)p.[moe](T)p.[moe](A)p.d(T)[sp].d(T)[sp].d(T)[sp].d(G)[sp].d(T)[sp].d([m5C])[sp].d(A)[sp].d(A)[sp].d([m5C])[sp].d([m5C])[sp].[moe]([m5C])p.[moe](A)[sp].[moe](G)}$$$$ (last 3' nucleoside missing) | 4.75
RNA1{[moe](A)[sp].[moe](T)p.[moe](A)p.[moe](T)p.[moe](T)p.[moe](T)p.d(G)[sp].d(T)[sp].d([m5C])[sp].d(A)[sp].d(A)[sp].d([m5C])[sp].d([m5C])[sp].d([m5C])[sp].d(A)[sp].d(G)[sp].[moe](A)p.[moe](A)[sp].[moe]([m5C])}$$$$ (last 3' nucleoside missing) | 1
RNA1{[moe]([m5C])[sp].[moe]([m5C])p.[moe](T)p.[moe](T)p.[moe](G)[sp].d([m5C])[sp].d(T)[sp].d(A)[sp].d(T)[sp].d(T)[sp].d([m5C])[sp].d(A)[sp].d(T)[sp].d(T)[sp].d(T)[sp].[moe](T)p.[moe](T)p.[moe]([m5C])[sp].[moe](A)}$$$$ (last 3' nucleoside missing) | 0
RNA1{[moe](G)[sp].[moe]([m5C])p.[moe](G)p.[moe](G)p.[moe](A)[sp].d([m5C])[sp].d(A)[sp].d(T)[sp].d(A)[sp].d([m5C])[sp].d(T)[sp].d(T)[sp].d([m5C])[sp].d(T)[sp].d(T)[sp].[moe](T)p.[moe](A)p.[moe](G)[sp].[moe]([m5C])}$$$$ (last 3' nucleoside missing) | 0
RNA1{[moe](G)[sp].[moe](A)p.[moe](A)p.[moe](G)p.[moe]([m5C])[sp].d(T)[sp].d(T)[sp].d(A)[sp].d([m5C])[sp].d(A)[sp].d(T)[sp].d([m5C])[sp].d(A)[sp].d(T)[sp].d(T)[sp].[moe](T)p.[moe](T)p.[moe]([m5C])[sp].[moe](T)}$$$$ (last 3' nucleoside missing) | 0
RNA1{[moe](T)[sp].[moe]([m5C])p.[moe]([m5C])p.[moe](A)p.[moe](T)[sp].d([m5C])[sp].d(T)[sp].d(T)[sp].d([m5C])[sp].d(A)[sp].d([m5C])[sp].d(T)[sp].d(T)[sp].d([m5C])[sp].d(A)[sp].[moe](G)p.[moe](A)p.[moe](G)[sp].[moe](A)}$$$$ (last 3' nucleoside missing) | 0.5
RNA1{[moe]([m5C])[sp].[moe](A)p.[moe](T)p.[moe](G)p.[moe](G)[sp].d([m5C])[sp].d(T)[sp].d(T)[sp].d([m5C])[sp].d([m5C])[sp].d(A)[sp].d([m5C])[sp].d(T)[sp].d([m5C])[sp].d(T)[sp].[moe](G)p.[moe](G)p.[moe]([m5C])[sp].[moe]([m5C])}$$$$ (last 3' nucleoside missing) | 1
RNA1{[moe](T)[sp].[moe]([m5C])p.[moe]([m5C])p.[moe]([m5C])p.[moe](A)[sp].d(T)[sp].d(A)[sp].d([m5C])[sp].d(A)[sp].d(T)[sp].d(G)[sp].d(A)[sp].d(T)[sp].d(T)[sp].d(T)[sp].[moe](T)p.[moe](A)p.[moe](G)[sp].[moe](G)}$$$$ (last 3' nucleoside missing) | 1.25
RNA1{[moe](A)[sp].[moe](T)p.[moe](G)p.[moe]([m5C])p.[moe](A)[sp].d(T)[sp].d([m5C])[sp].d(A)[sp].d(A)[sp].d(T)[sp].d(T)[sp].d([m5C])[sp].d([m5C])[sp].d(T)[sp].d(T)[sp].[moe](T)p.[moe](G)p.[moe](G)[sp].[moe](G)}$$$$ (last 3' nucleoside missing) | 0
RNA1{[moe](T)[sp].[moe](T)p.[moe](G)p.[moe](A)p.[moe](A)[sp].d([m5C])[sp].d([m5C])[sp].d([m5C])[sp].d(A)[sp].d([m5C])[sp].d(A)[sp].d(T)[sp].d([m5C])[sp].d(T)[sp].d(T)[sp].[moe]([m5C])p.[moe](T)p.[moe](G)[sp].[moe]([m5C])}$$$$ (last 3' nucleoside missing) | 0
RNA1{[moe](T)[sp].[moe](G)p.[moe](G)p.[moe](T)p.[moe](A)[sp].d([m5C])[sp].d(T)[sp].d(A)[sp].d(T)[sp].d(T)[sp].d(T)[sp].d([m5C])[sp].d(T)[sp].d(A)[sp].d(A)[sp].[moe](G)p.[moe](G)p.[moe](A)[sp].[moe](A)}$$$$ (last 3' nucleoside missing) | 0.33
RNA1{[moe]([m5C])[sp].[moe](A)p.[moe](T)p.[moe](T)p.[moe]([m5C])[sp].d(T)[sp].d([m5C])[sp].d(T)[sp].d(T)[sp].d(A)[sp].d(T)[sp].d(A)[sp].d(T)[sp].d(T)[sp].d([m5C])[sp].[moe]([m5C])p.[moe](T)p.[moe](T)[sp].[moe](A)}$$$$ (last 3' nucleoside missing) | 0
RNA1{[moe]([m5C])[sp].[moe]([m5C])p.[moe](T)p.[moe]([m5C])p.[moe](T)[sp].d(G)[sp].d([m5C])[sp].d(T)[sp].d(A)[sp].d([m5C])[sp].d(T)[sp].d(T)[sp].d([m5C])[sp].d(T)[sp].d(A)[sp].[moe]([m5C])p.[moe](T)p.[moe](A)[sp].[moe]([m5C])}$$$$ (last 3' nucleoside missing) | 1
RNA1{[moe](A)[sp].[moe](T)p.[moe]([m5C])p.[moe](A)p.[moe]([m5C])[sp].d([m5C])[sp].d(A)[sp].d(G)[sp].d(T)[sp].d(T)[sp].d(T)[sp].d([m5C])[sp].d(A)[sp].d(T)[sp].d(A)[sp].[moe]([m5C])p.[moe](A)p.[moe]([m5C])[sp].[moe](T)}$$$$ (last 3' nucleoside missing) | 0.25
RNA1{[moe](G)[sp].[moe]([m5C])p.[moe](T)p.[moe](G)p.[moe](T)[sp].d(T)[sp].d(G)[sp].d(T)[sp].d(A)[sp].d(G)[sp].d(G)[sp].d(A)[sp].d(A)[sp].d([m5C])[sp].d(T)[sp].[moe]([m5C])p.[moe](G)p.[moe](A)[sp].[moe](A)}$$$$ (last 3' nucleoside missing) | 4
RNA1{[moe]([m5C])[sp].[moe](A)p.[moe]([m5C])p.[moe]([m5C])p.[moe](T)[sp].d([m5C])[sp].d(A)[sp].d(G)[sp].d([m5C])[sp].d([m5C])[sp].d(A)[sp].d([m5C])[sp].d(T)[sp].d(T)[sp].d([m5C])[sp].[moe](T)p.[moe](T)p.[moe]([m5C])[sp].[moe]([m5C])}$$$$ (last 3' nucleoside missing) | 0.5
RNA1{[moe](G)[sp].[moe](T)p.[moe](G)p.[moe](A)p.[moe](T)[sp].d(T)[sp].d(T)[sp].d([m5C])[sp].d(A)[sp].d([m5C])[sp].d(T)[sp].d(A)[sp].d(A)[sp].d([m5C])[sp].d([m5C])[sp].[moe](G)p.[moe](G)p.[moe]([m5C])[sp].[moe](A)}$$$$ (last 3' nucleoside missing) | 2
RNA1{[moe]([m5C])[sp].[moe]([m5C])p.[moe](T)p.[moe](T)p.[moe](T)[sp].d([m5C])[sp].d(A)[sp].d(A)[sp].d(T)[sp].d(A)[sp].d(T)[sp].d(T)[sp].d(G)[sp].d(T)[sp].d(T)[sp].[moe]([m5C])p.[moe](T)p.[moe](T)[sp].[moe]([m5C])}$$$$ (last 3' nucleoside missing) | 3.33
RNA1{[moe](G)[sp].[moe]([m5C])p.[moe](A)p.[moe](T)p.[moe](G)[sp].d([m5C])[sp].d([m5C])[sp].d(T)[sp].d(T)[sp].d([m5C])[sp].d([m5C])[sp].d(T)[sp].d([m5C])[sp].d(A)[sp].d(T)[sp].[moe]([m5C])p.[moe]([m5C])p.[moe]([m5C])[sp].[moe]([m5C])}$$$$ (last 3' nucleoside missing) | 0
